From patent US20130053381A1, “2,4-DIOXO-1,4-DIHYDRO-2H-QUINAZOLIN-3-YL-SULFONAMIDE DERIVATIVES” (NOVARTIS AG, priority 2010, published 2013)

Each compound was assayed on OF1 mice (assay: Maximal electroshock test (MES Test)). Details: Mus musculus, po; 50 mg/kg, p.o., pre-treatment time −1 h; read-out: %-Protection.
Format: in vivo
Protocol: Compounds of the invention were tested in OF1 mice using the maximal electroshock test (MES Test) described in detail by Schmutz et al., Naunyn-Schmiedeberg's Arch Pharmacol 1990, 342, 61-66. Briefly, generalized tonic-clonic convulsions of the hind extremities were induced by passing electrical current through temporal electrodes (50 Hz, 18 mA, 0.2s). […] 30 mg/kg carbamazepine was used as a positive control; mice were classified as protected by a compound If the duration of the seizure lasted only 3 second or less. Five mice were used for each treatment condition and the percentage of protected mice was used as readout (i.e. a compound could give 0%, 20%, 40%, 60%, 80% or 100% protection). Usually, compounds of the invention or their parents were given at a dose of 50 mg/kg, p.o., 1 hour prior to induction of convulsions (i.e. “pre-treatment time −1 h”).
ED50 values (ED: effective dose) were calculated using GraphPad Prism, v4.02. after shock administration, mouse blood was collected for determination of compounds' blood exposure.

| Structure (SMILES) | responders at 50 mg/kg [%] |
| --- | --- |
| CCC(=O)N(n1c(=O)[nH]c2cc(C(C)C)c(-c3ccnn3C)cc2c1=O)S(C)(=O)=O [Example 3.12, N-[7-Isopropyl-6-(2-methyl-2H-pyrazol-3-yl)-2,4-dioxo-1,4-dihydro-2H-quinazolin-3-yl]-N-propionyl-methanesulfonamide] | 100 |
| CCCC(=O)N(n1c(=O)[nH]c2cc(C(C)C)c(-c3ccnn3C)cc2c1=O)S(C)(=O)=O [Example 3.13, N-Butyryl-N-[7-isopropyl-6-(2-methyl-2H-pyrazol-3-yl)-2,4-dioxo-1,4-dihydro-2H-quinazolin-3-yl]-methanesulfonamide] | 100 |
| CCCCCC(=O)N(n1c(=O)[nH]c2cc(C(C)C)c(-c3ccnn3C)cc2c1=O)S(C)(=O)=O [Example 3.14, N-Hexanoyl-N-[7-isopropyl-6-(2-methyl-2H-pyrazol-3-yl)-2,4-dioxo-1,4-dihydro-2H-quinazolin-3-yl]-methanesulfonamide] | 100 |
| CC(C)C(=O)N(n1c(=O)[nH]c2cc(C(C)C)c(-c3ccnn3C)cc2c1=O)S(C)(=O)=O [Example 3.16, N-Isobutyryl-N-[7-isopropyl-6-(2-methyl-2H-pyrazol-3-yl)-2,4-dioxo-1,4-dihydro-2H-quinazolin-3-yl]-methanesulfonamide] | 60 |
| CC(=O)OCC(=O)N(n1c(=O)[nH]c2cc(C(C)C)c(-c3ccnn3C)cc2c1=O)S(C)(=O)=O [Example 3.17, Acetic acid 2-{[7-isopropyl-6-(2-methyl-2H-pyrazol-3-yl)-2,4-dioxo-1,4-dihydro-2H-quinazolin-3-yl]-methanesulfonyl-amino}-2-oxo-ethyl ester] | 100 |
| CSCCC(=O)N(n1c(=O)[nH]c2cc(C(C)C)c(-c3ccnn3C)cc2c1=O)S(C)(=O)=O [Example 3.18, N-[7-Isopropyl-6-(2-methyl-2H-pyrazol-3-yl)-2,4-dioxo-1,4-dihydro-2H-quinazolin-3-yl]-N-(3-methylsulfanyl-propionyl)-methanesulfonamide] | 100 |
| CCOC(=O)N(n1c(=O)[nH]c2cc(C(C)C)c(-c3ccnn3C)cc2c1=O)S(C)(=O)=O [Example 3.19, [7-Isopropyl-6-(2-methyl-2H-pyrazol-3-yl)-2,4-dioxo-1,4-dihydro-2H-quinazolin-3-yl]-methanesulfonyl-carbamic acid ethyl ester] | 100 |
| CCCOC(=O)N(n1c(=O)[nH]c2cc(C(C)C)c(-c3ccnn3C)cc2c1=O)S(C)(=O)=O [Example 3.20, [7-Isopropyl-6-(2-methyl-2H-pyrazol-3-yl)-2,4-dioxo-1,4-dihydro-2H-quinazolin-3-yl]-methanesulfonyl-carbamic acid propyl ester] | 100 |
| CCCCOC(=O)N(n1c(=O)[nH]c2cc(C(C)C)c(-c3ccnn3C)cc2c1=O)S(C)(=O)=O [Example 3.21, [7-Isopropyl-6-(2-methyl-2H-pyrazol-3-yl)-2,4-dioxo-1,4-dihydro-2H-quinazolin-3-yl]-methanesulfonyl-carbamic acid butyl ester] | 100 |
| CCCCCCOC(=O)N(n1c(=O)[nH]c2cc(C(C)C)c(-c3ccnn3C)cc2c1=O)S(C)(=O)=O [Example 3.22, [7-Isopropyl-6-(2-methyl-2H-pyrazol-3-yl)-2,4-dioxo-1,4-dihydro-2H-quinazolin-3-yl]-methanesulfonyl-carbamic acid hexyl ester] | 100 |
| CC(C)c1cc2[nH]c(=O)n(N(C(=O)C(C)(C)C)S(C)(=O)=O)c(=O)c2cc1-c1ccnn1C [Example 3.23, N-(2,2-Dimethyl-propionyl)-N-[7-isopropyl-6-(2-methyl-2H-pyrazol-3-yl)-2,4-dioxo-1,4-dihydro-2H-quinazolin-3-yl]-methanesulfonamide] | 20 |
| CC(=O)N(n1c(=O)c2cc(-c3ccnn3C)c(C(C)C)cc2n(C(C)=O)c1=O)S(C)(=O)=O [Example 3.24, N-Acetyl-N-[1-acetyl-7-isopropyl-6-(2-methyl-2H-pyrazol-3-yl)-2,4-dioxo-1,4-dihydro-2H-quinazolin-3-yl]-methanesulfonamide] | 100 |
| CCC(=O)N(n1c(=O)c2cc(-c3ccnn3C)c(C(C)C)cc2n(C(=O)CC)c1=O)S(C)(=O)=O [Example 3.25, N-[7-Isopropyl-6-(2-methyl-2H-pyrazol-3-yl)-2,4-dioxo-1-propionyl-1,4-dihydro-2H-quinazolin-3-yl]-N-propionyl-methanesulfonamide] | 100 |
| CCCC(=O)N(n1c(=O)c2cc(-c3ccnn3C)c(C(C)C)cc2n(C(=O)CCC)c1=O)S(C)(=O)=O [Example 3.26, N-Butyryl-N-[1-butyryl-7-isopropyl-6-(2-methyl-2H-pyrazol-3-yl)-2,4-dioxo-1,4-dihydro-2H-quinazolin-3-yl]-methanesulfonamide] | 80 |

Same assay, conditions: Mus musculus, po; Dose: 15 mg/kg, p.o. (footnote c), pre-treatment time −1 h; read-out: %-Protection

| Structure (SMILES) | responders at 15 mg/kg [%] |
| --- | --- |
| CC(C)COC(=O)N(n1c(=O)[nH]c2cc(C(C)C)c(-c3ccnn3C)cc2c1=O)S(C)(=O)=O [Example 3.03, [7-Isopropyl-6-(2-methyl-2H-pyrazol-3-yl)-2,4-dioxo-1,4-dihydro-2H-quinazolin-3-yl]-methanesulfonyl-carbamic acid isobutyl ester] | 40 |
| CC(C)COC(=O)N(n1c(=O)c2cc(-c3ccnn3C)c(C(C)C)cc2n(C(=O)OCC(C)C)c1=O)S(C)(=O)=O [Example 3.04, 3-(Isobutoxycarbonyl-methanesulfonyl-amino)-7-isopropyl-6-(2-methyl-2H-pyrazol-3-yl)-2,4-dioxo-3,4-dihydro-2H-quinazoline-1-carboxylic acid isobutyl ester] | 20 |
| COC(=O)N(n1c(=O)[nH]c2cc(C(C)C)c(-c3ccnn3C)cc2c1=O)S(C)(=O)=O [Example 3.05, [7-Isopropyl-6-(2-methyl-2H-pyrazol-3-yl)-2,4-dioxo-1,4-dihydro-2H-quinazolin-3-yl]-methanesulfonyl-carbamic acid methyl ester] | 60 |
| CCOC(=O)CCC(=O)N(n1c(=O)[nH]c2cc(C(C)C)c(-c3ccnn3C)cc2c1=O)S(C)(=O)=O [Example 3.06, 4-{[7-Isopropyl-6-(2-methyl-2H-pyrazol-3-yl)-2,4-dioxo-1,4-dihydro-2H-quinazolin-3-yl]-methanesulfonyl-amino}-4-oxo-butyric acid ethyl ester] | 100 |
| CCOC(=O)CC(=O)N(n1c(=O)[nH]c2cc(C(C)C)c(-c3ccnn3C)cc2c1=O)S(C)(=O)=O [Example 3.07, 3-{[7-Isopropyl-6-(2-methyl-2H-pyrazol-3-yl)-2,4-dioxo-1,4-dihydro-2H-quinazolin-3-yl]-methanesulfonyl-amino}-3-oxo-propionic acid ethyl ester] | 80 |
| CCOC(=O)CCCC(=O)N(n1c(=O)[nH]c2cc(C(C)C)c(-c3ccnn3C)cc2c1=O)S(C)(=O)=O [Example 3.08, 5-{[7-Isopropyl-6-(2-methyl-2H-pyrazol-3-yl)-2,4-dioxo-1,4-dihydro-2H-quinazolin-3-yl]-methanesulfonyl-amino}-5-oxo-pentanoic acid ethyl ester] | 100 |
| CCCCC(=O)N(n1c(=O)[nH]c2cc(C(C)C)c(-c3ccnn3C)cc2c1=O)S(C)(=O)=O [Example 3.09, N-[7-Isopropyl-6-(2-methyl-2H-pyrazol-3-yl)-2,4-dioxo-1,4-dihydro-2H-quinazolin-3-yl]-N-pentanoyl-methanesulfonamide] | 100 |
| CC(=O)OC(C)(C)C(=O)N(n1c(=O)[nH]c2cc(C(C)C)c(-c3ccnn3C)cc2c1=O)S(C)(=O)=O [Example 3.10, Acetic acid 2-{[7-isopropyl-6-(2-methyl-2H-pyrazol-3-yl)-2,4-dioxo-1,4-dihydro-2H-quinazolin-3-yl]-methanesulfonyl-amino}-1,1-dimethyl-2-oxo-ethyl ester] | 40 |

Same assay, conditions: Mus musculus, po; Dose: 15 mg/kg, p.o., pre-treatment time −2 h (footnotes a,c); read-out: %-Protection

| Structure (SMILES) | responders at 15 mg/kg [%] |
| --- | --- |
| CC(=O)OC(C)(C)C(=O)N(n1c(=O)c2cc(-c3ccnn3C)c(C(C)C)cc2n(C(=O)C(C)(C)OC(C)=O)c1=O)S(C)(=O)=O [Example 3.11, Acetic acid 2-[3-[(2-acetoxy-2-methyl-propionyl)-methanesulfonyl-amino]-7-isopropyl-6-(2-methyl-2H-pyrazol-3-yl)-2,4-dioxo-3,4-dihydro-2H-quinazolin-1-yl]-1,1-dimethyl-2-oxo-ethyl ester] | 40 |

Same assay, conditions: Mus musculus, po; Table 5; 50 mg/kg, p.o., pre-treatment time −0.25 h; read-out: %-Protection

| Structure (SMILES) | responders at 50 mg/kg [%] |
| --- | --- |
| CC(=O)N(n1c(=O)c2cc(-c3ccnn3C)c(C(C)C)cc2n(C(C)=O)c1=O)S(C)(=O)=O [Example 3.24, N-Acetyl-N-[1-acetyl-7-isopropyl-6-(2-methyl-2H-pyrazol-3-yl)-2,4-dioxo-1,4-dihydro-2H-quinazolin-3-yl]-methanesulfonamide] | 100 |

Same assay, conditions: Mus musculus, po; Table 5; 50 mg/kg, p.o., pre-treatment time −0.5 h; read-out: %-Protection

| Structure (SMILES) | responders at 50 mg/kg [%] |
| --- | --- |
| CC(=O)N(n1c(=O)c2cc(-c3ccnn3C)c(C(C)C)cc2n(C(C)=O)c1=O)S(C)(=O)=O [Example 3.24, N-Acetyl-N-[1-acetyl-7-isopropyl-6-(2-methyl-2H-pyrazol-3-yl)-2,4-dioxo-1,4-dihydro-2H-quinazolin-3-yl]-methanesulfonamide] | 100 |

Same assay, conditions: Mus musculus, sc; Dose: 25 mg/kg, s.c., pre-treatment time −4 h (footnote f); read-out: %-Protection

| Structure (SMILES) | responders at 25 mg/kg [%] |
| --- | --- |
| CCCCCCCCCC(=O)N(n1c(=O)[nH]c2cc(C(C)C)c(-c3ccnn3C)cc2c1=O)S(C)(=O)=O [Example 3.15, N-Decanoyl-N-[7-isopropyl-6-(2-methyl-2H-pyrazol-3-yl)-2,4-dioxo-1,4-dihydro-2H-quinazolin-3-yl]-methanesulfonamide] | 20 |

Same assay, conditions: Mus musculus; dose of up to 50 mg/kg, p.o., 1 hour prior to induction of convulsions; read-out: %-Protection

| Structure (SMILES) | responders at 50 mg/kg [%] |
| --- | --- |
| CCCCCCCCCC(=O)N(n1c(=O)[nH]c2cc(C(C)C)c(-c3ccnn3C)cc2c1=O)S(C)(=O)=O [Example 3.15, N-Decanoyl-N-[7-isopropyl-6-(2-methyl-2H-pyrazol-3-yl)-2,4-dioxo-1,4-dihydro-2H-quinazolin-3-yl]-methanesulfonamide] | 0 |

Same assay, conditions: Table 5; 50 mg/kg, p.o., pre-treatment time −1 h

| Structure (SMILES) | %-Protection [%] |
| --- | --- |
| CC(=O)N(n1c(=O)c2cc(-c3ccnn3C)c(C(C)C)cc2n(C(C)=O)c1=O)S(C)(=O)=O [Example 3.24, N-Acetyl-N-[1-acetyl-7-isopropyl-6-(2-methyl-2H-pyrazol-3-yl)-2,4-dioxo-1,4-dihydro-2H-quinazolin-3-yl]-methanesulfonamide] | 100 |
